Source: patent publication US5106859A, “Certain 1,3,4-thiadiazole derivatives and anti-ulcer agent comprising said derivatives as active ingredient” (Tsumura & Co., priority 1988, dated 1992)

Test system: mucosa of the stomach
Experiment: Anti-ulcer test by oral administration (hydrochloric acid/ethanol-induced stomach mucosa damage)
Assay type: in vivo, male rats of the Wistar strain
Details: 3 mg/kg orally in 0.5% CMC, 30 minutes before 150 M hydrochloric acid/60% ethanol; male Wistar rats, 8 per group; 1 hour after hydrochloric acid/ethanol
Method: To male rats of the Wistar strain (each group consisting of 8 rats) having a body weight of 160 to 180 g, which had been fasted for 24 hours, was orally administered 3 mg/kg of the compound of formula I in the form of a suspension in a 0.5% solution of carboxymethyl cellulose (CMC), and after 30 minutes, 1 ml/200 of […] hydrochloric acid/60% ethanol was orally administered to the rats. One hour after the administration of the hydrochloric acid/ethanol, the rats were subjected to laparotomy, and the length of the damaged part formed on the mucosa of the stomach was compared, as the mucosa damage coefficient, with that in the control group. Only the 0.5% solution of CMC not containing the compound of formula I was orally administered to the control group. The inhibition ratio was calculated according to the following formula: [formula] wherein A represents the value of the control group and B represents the value of the group to which the compound of formula I was administered.

Row | Compound | Inhibition Ratio (mucosa damage coefficient)
1 | CCOC(=O)c1ccc(CSc2nnc(-c3cccnc3)s2)nc1 [Example 1, 2-[(5-Ethoxycarbonylpyridin-2-yl)methylthio]-5-(3-pyridyl)-1,3,4-thiadiazole] | 42.9%
2 | CCOC(=O)c1ccc(C[S+]([O-])c2nnc(-c3cccnc3)s2)nc1 (centres unmarked) [Example 2, 2-[(5-Ethoxycarbonylpyridin-2-yl)methylsulfinyl]-5-(3-pyridyl)-1,3,4-thiadiazole] | 91.5%
